Data as given in patent US20070264680A1, “Method and Test-Kit for the Detection and Quantification of Organisms” (PROTEUS S.A., priority 2004, published 2007).

Tests used:
[1] = tested on: Candida albicans (ATCC 10231); conditions: 0.3% in CSL, 30° C., reduction from 10^7, 24 h
Description: (§1) An EuAB test for antimicrobial activity was performed with Corynebacterium xerosis (DSM 20743), Staphylococcus epidermidis (DSM 3269) and Candida albicans (ATCC 10231). As culture medium CSL (Casein peptone-soybean meal peptone solution), CSA (Casein peptone-soybean meal pepton agar) and Sabouraud-glucose broth/agar was used.
(§2) As dilution liquid NaCl-peptone buffer solution with inactivator (3% Tween 80, 0.3% lecithin, 0.1% histidine and 0.5% Na thiosulfate) was used. Polyglyceryl-3 caprylate was tested in 0.3% (in CSL) concentration. The test solution was prepared one day before investigation. For this, 100 ml of CSL was heated to 60° C. in a water bath. 0.3 g was weighed into 100 ml of CSL at 60° C. The preparations were shaken vigorously by hand and left overnight at 30° C. in an incubator. Corynebacterium xerosis was cultivated over 3 to 4 days. Other microbes were isolated in broth or by elutriation. For each test microbe, 20 ml of each test solution were introduced into sterile 50 ml brown glass bottles with glass beads and contaminated with 0.2 ml of microbe suspension. As controls, 20 ml of CSL were carried over per test microbe without sample.
(§3) The contaminated samples were shaken for 3 min on a shaking machine and kept in an incubator at 30° C. until removed. At the removal points (1, 2, 3, 24 and 48 hours) 1 ml was taken from each preparation and transferred in each case to 9 ml of NaCl-peptone buffer solution with inactivator and the colony number was determined. The 0 hour values given were the colony numbers of the test microbe suspension used taking into consideration the 10^−2 dilution upon sample contamination.

[2] = tested on: Corynebacterium xerosis (DSM 20743); conditions: 0.3% in CSL, 30° C., reduction from 10^7, 24 h
Description: as §1, §2, §3

[3] = tested on: Staphylococcus epidermidis (DSM 3269); conditions: 0.3% in CSL, 30° C., reduction from 10^7, 24 h
Description: as §1, §2, §3

[4] = tested on: benchmark bacterial strain having an esterase activity; assay: Microbial decontamination efficiency of cleaning substances on contaminated plastic surfaces (esterase activity of swab); format: cell-based; conditions: remaining esterase activity after cleaning the plastic surface with an impregnated wipe; optical density at 414 nm; not cleaned: 3.474
Description: For this purpose, a benchmark bacterial strain having an esterase activity (isolated by traditional microbiological methods from samples collected from human foreheads) has been used to artificially contaminated surfaces. This strain has been prepared by an overnight incubation at 37° C. in LB medium. 200 μL of this cell preparation, corresponding to 6.107 cfu have been spread on five plastic surfaces and allowed to dry completely.
Samples have then been collected onto the different plastic surfaces using swabs beforehand impregnated with PBS containing 0.1% w/v of Triton X100. 16 μL of the transformable substrate (2-hydroxy-4-p-nitrophenoxy-butyl hexanoate 20 mM in DMSO) have been mixed with 184 μL of aqueous PBS buffer 0.1M pH7.3. The swab has been plunged in this mix and incubated for 1 h at 37° C. The swab has then been removed from the reaction mixture and 100 μL have been transferred to another vial. 4 μL of bovine serum albumin 50 mg/mL in water, 40 μL NaIO4 100 mM in water and 40 μL Na2CO3 200 mM in water have been added. The reaction mixture has been incubated for 10 min at room temperature and centrifuged for 15 min at 16000 g. The activity has then been quantified by measuring optical density at 414 nm.

| Compound | bacteria count (colony number) after 24 h [1] | bacteria count (colony number) after 24 h [2] | bacteria count (colony number) after 24 h [3] | activity [4] |
| --- | --- | --- | --- | --- |
| polyglyceryl-3 caprylate | less than 270 | less than 270 | less than 270 |  |
| O [water] |  |  |  | 0.100 |
| CCO [70% ethanol, ethanol] |  |  |  | 0.195 |
